# Measured values as given in patent US10851108B2, “Substituted bicyclic heterocyclic compounds” (BRISTOL-MYERS SQUIBB COMPANY, priority 2016, dated 2020).
# Target: hROMK (human Kir1.1) (Homo sapiens (Human), UniProt P48048)
# Experiment: Thallium Flux Assay
# Format: cell-based
# Details: CHO T-Rex hROMK stable cell line, 10-point concentration response; read-out: hROMK Th+ Flux IC50
# Protocol: Solutions and reagents: Thallium flux assay was performed using FluxOR kit (F10017, Life Technologies). Loading buffer, assay buffer and stimulus buffer were prepared using kit components. HBSS (Hank's balanced salt solution, Cat #14025-092) was purchased separately from Life Technologies.
# To prepare 10 ml of loading buffer: 10 μl of FluxOR dye (reconstituted in DMSO) was first added to 100 μl of powerload concentrate and this mix along with 100 μl of Probenicid (100×) was then added to 9.79 ml of HBSS. Assay buffer (10 ml) was prepared by addition of 2 ml of FluxOR chloride free buffer (5×), 100 μl of Probenicid (100×), and 0.2 ml of Ouabain (13.77 mM) to 7.7 ml of deionized water. Stimulus buffer was composed of 15 mM Tl2SO4, 0.75 mM K2SO4 in FluxOR chloride free buffer (diluted to 1× using deionized water). The final concentration of Tl2SO4 and K2SO4 in the assay plate was 3 mM and 0.15 mM, respectively.
# Plating and induction of cells: The CHO T-Rex hROMK (human Kir1.1) stable cell line was maintained in Ham's F12 media supplemented with 10% FBS, 1% Penicillin-Streptomycin, 500 μg/ml Zeocin and 10 μg/ml Blasticidin at 37° C. in a 5% CO2 incubator. One day before the experiment, the cells were dissociated by incubation with Versene solution (15040-066, Life Technologies) for 10 minutes at 37° C. followed by addition of growth media. The cell suspension was centrifuged at 1200 rpm for 5 min. After discarding the supernatant, the cells were resuspended in fresh growth media and cell concentration was determined using a hemocytometer. Next, 0.5 μg/ml of Doxycycline was added to the cell suspension to induce hROMK channel expression and 50 μl (10,000 cells/well) of cell suspension was added to each well of a poly-D lysine coated 384 well black, optically clear bottom plate (6007718, Perkin Elmer). The assay plate was kept at 37° C. in a 5% CO2 incubator.
# Assay protocol: On the day of experiment, media was removed and loading buffer was added (30 μl/well) to the assay plate. The cells were incubated in the loading buffer for 30 minutes at 37° C. The loading buffer was then replaced by assay buffer (30 μl/well) followed by addition of test compounds or controls. The cells were incubated with compounds for 30 minutes and the plate was then mounted on FlexStation (Molecular Devices) for fluorescence read out with excitation and emission wavelengths at 488 and 525 nm, respectively. Each well was read for 90 sec at 2 sec interval and the stimulus buffer was added after 20 seconds of baseline recording. The final DMSO concentration was either 0.5 or 1% in the assay plate. […] controls were defined by addition of DMSO or 3 μM of a standard ROMK inhibitor, respectively, to the wells instead of a test compound.
# A 10-point concentration response curve was used to estimate the IC50 value of test compounds.
# The data in Table 3 is reported with two significant figures.
# Sequence of hROMK (human Kir1.1) (P48048 whole entry): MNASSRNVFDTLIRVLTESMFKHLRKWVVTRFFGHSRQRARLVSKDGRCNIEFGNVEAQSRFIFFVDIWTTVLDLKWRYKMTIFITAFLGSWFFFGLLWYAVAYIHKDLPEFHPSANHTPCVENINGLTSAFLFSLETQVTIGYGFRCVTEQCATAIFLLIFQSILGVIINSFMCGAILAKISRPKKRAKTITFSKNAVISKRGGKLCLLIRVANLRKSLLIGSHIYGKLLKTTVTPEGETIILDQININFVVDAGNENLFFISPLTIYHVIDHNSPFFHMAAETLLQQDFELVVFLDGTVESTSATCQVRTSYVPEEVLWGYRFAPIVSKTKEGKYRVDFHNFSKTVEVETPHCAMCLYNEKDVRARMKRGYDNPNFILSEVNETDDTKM
row,IC50,Compound
1,340 nM,"N#Cc1ccc2c(ccn2-c2ncc3c(n2)CCN(CC(O)c2ccc4c(c2)COC4=O)C3)c1 (single isomer, unassigned) [Example 17-I, 1-(6-(2-hydroxy-2-(1-oxo-1,3-dihydro-isobenzofuran-5-yl)ethyl)-5,6,7,8-tetrahydropyrido[4,3-d]pyrimidin-2-yl)-1H-indole-5-carbonitrile]"
2,2100 nM,"Cc1c(C(CO)N2CCc3nc(Nc4ccc(C#N)c(F)c4)ncc3C2)ccc2c1COC2=O (single isomer, unassigned) [Example 29-II, 2-fluoro-4-((6-(2-hydroxy-1-(4-methyl-1-oxo-1,3-dihydroisobenzofuran-5-yl)ethyl)-5,6,7,8-tetrahydropyrido [4,3-d]pyrimidin-2-yl)amino)benzonitrile]"
3,270 nM,"Cc1c(CN2CCc3nc(Nc4ccc(C#N)c(F)c4)ncc3C2)ccc2c1COC2=O [Example 26, 2-fluoro-4-((6-((4-methyl-1-oxo-1,3-dihydroisobenzofuran-5-yl)methyl)-5,6,7,8-tetrahydropyrido[4,3-d]pyrimidin-2-yl)amino) benzonitrile]"
4,600 nM,"Cn1c(=O)oc2ccc(CN3CCc4cc(Nc5ccc(C#N)c(F)c5)ccc4C3)cc21 [Example 48, 2-fluoro-4-((2-((3-methyl-2-oxo-2,3-dihydrobenzo[d]oxazol-5-yl)methyl)-1,2,3,4-tetrahydroisoquinolin-6-yl)amino)benzonitrile]"
5,157 nM,"Cc1c(C(O)CN2CCc3nc(-n4cnc5ccccc54)ncc3C2)ccc2c1COC2=O (single isomer, unassigned) [Example 67-I, 5-(2-(2-(1H-benzo[d]imidazol-1-yl)-7,8-dihydropyrido[4,3-d]pyrimidin-6(5H)-yl)-1-hydroxyethyl)-4-methyliso-benzofuran-1(3H)-one]"
6,38 nM,"Cc1c(C(O)CN2CCc3nc(-n4ncc5c(C#N)cccc54)ncc3C2)ccc2c1COC2=O (single isomer, unassigned) [Example 12-I, 1-(6-(2-hydroxy-2-(4-methyl-1-oxo-1,3-dihydroisobenzofuran-5-yl)ethyl)-5,6,7,8-tetrahydropyrido[4,3-d]pyrimidin-2-yl)-1H-indazole-4-carbonitrile]"
7,580 nM,"N#Cc1cccc2c1ccn2-c1ncc2c(n1)CCN(CC(O)c1ccc3c(c1)COC3=O)C2 (single isomer, unassigned) [Example 18-II, 1-(6-(2-hydroxy-2-(1-oxo-1,3-dihydro-isobenzofuran-5-yl)ethyl)-5,6,7,8-tetrahydropyrido[4,3-d]pyrimidin-2-yl)-1H-indole-4-carbonitrile]"
8,3400 nM,"Cc1c(CN2CCc3nc(-n4cnc5c(C#N)cccc54)ncc3C2)ccc2c1COC2=O [Example 40, 1-(6-((4-methyl-1-oxo-1,3-dihydro-isobenzofuran-5-yl)methyl)-5,6,7,8-tetrahydropyrido[4,3-d]pyrimidin-2-yl)-1H-benzo[d]imidazole-4-carbonitrile]"
9,460 nM,"Cc1c(C(O)CN2CCc3nc(-n4ccc5c(C#N)cccc54)ncc3C2)ccc2c1COC2=O (single isomer, unassigned) [Example 1-II, 1-(6-(2-hydroxy-2-(4-methyl-1-oxo-1,3-dihydroisobenzofuran-5-yl)ethyl)-5,6,7,8-tetrahydropyrido[4,3-d]pyrimidin-2-yl)-1H-indole-4-carbonitrile]"
10,3000 nM,"Cc1c(C(CO)N2CCc3nc(-n4cc(C#N)c5ccccc54)ncc3C2)ccc2c1COC2=O (single isomer, unassigned) [Example 9-I, 1-(6-(2-hydroxy-1-(4-methyl-1-oxo-1,3-dihydroisobenzofuran-5-yl)ethyl)-5,6,7,8-tetrahydropyrido[4,3-d]pyrimidin-2-yl)-1H-indole-3-carbonitrile]"
11,300 nM,"Cc1cc(Nc2ccc3c(c2)CCN(Cc2ccc4c(c2)COC4=O)C3)ncc1C#N [Example 34, 4-methyl-6-((2-((1-oxo-1,3-dihydro-isobenzofuran-5-yl)methyl)-1,2,3,4-tetrahydroisoquinolin-6-yl)amino) nicotinonitrile]"
12,1500 nM,"N#Cc1cnc2c(ccn2-c2ncc3c(n2)CCN(Cc2ccc4c(c2)COC4=O)C3)c1 [Example 46, 1-(6-((1-oxo-1,3-dihydroisobenzofuran-5-yl)methyl)-5,6,7,8-tetrahydropyrido[4,3-d]pyrimidin-2-yl)-1H-pyrrolo[2,3-b] pyridine-5-carbonitrile]"
13,83 nM,"Cc1c(C(O)CN2CCc3nc(-n4cc(C#N)c5ccccc54)ncc3C2)ccc2c1COC2=O (single isomer, unassigned) [Example 8-II, 1-(6-(2-hydroxy-2-(4-methyl-1-oxo-1,3-dihydroisobenzofuran-5-yl)ethyl)-5,6,7,8-tetrahydropyrido[4,3-d]pyrimidin-2-yl)-1H-indole-3-carbonitrile]"
14,381 nM,"COc1cc(Nc2ncc3c(n2)CCN(CC(O)c2ccc4c(c2C)COC4=O)C3)ncc1C#N (single isomer, unassigned) [Example 64-I, 6-((6-(2-hydroxy-2-(4-methyl-1-oxo-1,3-dihydroisobenzofuran-5-yl)ethyl)-5,6,7,8-tetrahydropyrido[4,3-d]pyrimidin-2-yl)amino)-4-methoxynicotinonitrile]"
15,750 nM,"Cc1c(CN2CCc3nc(-n4ncc5cc(C#N)ccc54)ncc3C2)ccc2c1COC2=O [Example 13, 1-(6-((4-methyl-1-oxo-1,3-dihydro-isobenzofuran-5-yl)methyl)-5,6,7,8-tetrahydropyrido[4,3-d]pyrimidin-2-yl)-1H-indazole-5-carbonitrile]"
16,820 nM,"Cc1c(CN2CCc3cc(-n4ccc5c(C#N)cccc54)ccc3C2)ccc2c1COC2=O [Example 24, 1-(2-((4-methyl-1-oxo-1,3-dihydro-isobenzofuran-5-yl)methyl)-1,2,3,4-tetrahydroisoquinolin-6-yl)-1H-indole-4-carbonitrile]"
17,120 nM,"N#Cc1ccc(Nc2ccc3c(c2)CCN(CCc2ccc4c(c2)COC4=O)C3)cc1F [Example 6, 2-fluoro-4-((2-(2-(1-oxo-1,3-dihydroisobenzofuran-5-yl)ethyl)-1,2,3,4-tetrahydroisoquinolin-6-yl)amino)benzonitrile]"
18,4900 nM,"Cc1c(CN2CCc3cc(Nc4ncc(C#N)cn4)ccc3C2)ccc2c1COC2=O [Example 37, 2-((2-((4-methyl-1-oxo-1,3-dihydro-isobenzofuran-5-yl)methyl)-1,2,3,4-tetrahydroisoquinolin-6-yl)amino) pyrimidine-5-carbonitrile]"
19,1100 nM,"Cc1c(CN2CCc3nc(-n4cc(C#N)c5ccccc54)ncc3C2)ccc2c1COC2=O [Example 23, 1-(6-((4-methyl-1-oxo-1,3-dihydro-isobenzofuran-5-yl)methyl)-5,6,7,8-tetrahydropyrido[4,3-d]pyrimidin-2-yl)-1H-indole-3-carbonitrile]"
20,1240 nM,"COC(=O)c1cnc2ccn(-c3ncc4c(n3)CCN(CC(O)c3ccc5c(c3C)COC5=O)C4)c2c1 (single isomer, unassigned) [Example 52-I, methyl 1-(6-(2-hydroxy-2-(4-methyl-1-oxo-1,3-dihydroisobenzofuran-5-yl)ethyl)-5,6,7,8-tetrahydropyrido[4,3-d]pyrimidin-2-yl)-1H-pyrrolo[3,2-b]pyridine-6-carboxylate]"

row,Compound,IC50
1,"Cc1c(CN2Cc3cnc(Nc4ccc(C#N)c(F)c4)nc3CC2CO)ccc2c1COC2=O (single isomer, unassigned) [Example 57-I, 2-fluoro-4-((7-(hydroxymethyl)-6-((4-methyl-1-oxo-1,3-dihydroisobenzo-furan-5-yl)methyl)-5,6,7,8-tetrahydro-pyrido[4,3-d]pyrimidin-2-yl)amino) benzonitrile]",830 nM
2,"Cc1c(CN2Cc3cnc(Nc4ccc(C#N)c(F)c4)nc3CC2CO)ccc2c1COC2=O (stereo not shown) [Example 57-II, 2-fluoro-4-((7-(hydroxymethyl)-6-((4-methyl-1-oxo-1,3-dihydroisobenzo-furan-5-yl)methyl)-5,6,7,8-tetrahydro-pyrido[4,3-d]pyrimidin-2-yl)amino) benzonitrile]",679 nM
